In the assay the test system is soybean powdery mildew (Microsphaera diffusa). The assay is described as follows: Test Example 13: control test against soybean powdery mildew, foliar spray after inoculation. Type of assay: in vivo. Conditions: 200 ppm foliar spray 2 days after inoculation; soybean cv Kurosengoku.

For `CCS(=O)(=O)n1ccc(-c2ccc(Cl)c([N+](=O)[O-])c2)n1` [compound 36], the “lesion area compared to the lesion area in an untreated soybean” value was at most 30%.

The record behind these values is patent US12225904B2, “Phenylpyrazole compound and method for controlling plant disease” (SUMITOMO CHEMICAL COMPANY, LIMITED, priority 2019, dated 2025).
